The molecules below were run against T1, human β3 adrenergic receptor (Homo sapiens, UniProt P13945) (assay: whole cell receptor coupled c-AMP assay, human β3 receptor in CHO cells (EC50, Emax relative to isoproterenol)). Details: % intrinsic activity relative to isoproterenol maximal response; average of at least 3 runs; c-AMP in transfected CHO cells.
T1 construct: expressed in transfected cells; host or cells: DXB-11 Chinese hamster ovary (CHO) cell line, stably transfected (phd expression vector)
Format: cell-based
Outline: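 Stably transfected DXB-11 CHO cells (20,000/well) were exposed to compound for 20 min at 37 °C in HBSS/HEPES buffer with 1 mM IBMX, pH 7.4. cAMP was measured by SPA. EC50 came from a four-parameter logistic fit, and Emax is the maximal response as a percentage of isoproterenol's.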

T1 sequence (P13945 whole entry): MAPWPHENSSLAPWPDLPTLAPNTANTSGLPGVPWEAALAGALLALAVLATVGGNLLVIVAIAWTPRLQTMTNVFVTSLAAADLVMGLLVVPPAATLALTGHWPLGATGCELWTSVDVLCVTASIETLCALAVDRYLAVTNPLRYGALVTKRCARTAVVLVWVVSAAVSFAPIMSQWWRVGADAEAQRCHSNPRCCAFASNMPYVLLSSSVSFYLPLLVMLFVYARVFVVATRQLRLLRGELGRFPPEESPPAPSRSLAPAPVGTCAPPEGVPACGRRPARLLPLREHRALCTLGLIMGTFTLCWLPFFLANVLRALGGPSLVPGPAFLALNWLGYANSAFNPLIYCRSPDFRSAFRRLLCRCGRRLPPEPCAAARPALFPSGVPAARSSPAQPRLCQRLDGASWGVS

Compound	Emax (%) ± SEM
CC(C)(Cc1ccc(Oc2ccc(C(N)=O)cn2)cc1)NC[C@H](O)COc1ccccc1-c1cc2ccccc2o1 [Example 370]	40.3 ± 2.8%
CC(C)(Cc1ccc(Oc2ncccc2C#N)cc1)NC[C@H](O)COc1ccccc1-c1cc2ccccc2o1 [Example 371]	38.9 ± 3.9%
CC(C)(Cc1ccc(Oc2ncccc2C(N)=O)cc1)NC[C@H](O)COc1ccccc1-c1cc2ccccc2o1 [Example 372]	56.3 ± 4.8%
CC(C)(Cc1ccc(Oc2ccc(C#N)cn2)cc1)NC[C@H](O)COc1ccccc1-c1ccncc1 [Example 373]	29.0 ± 6.8%
CC(C)(Cc1ccc(Oc2ccc(C(N)=O)cn2)cc1)NC[C@H](O)COc1ccccc1-c1ccncc1 [Example 374]	49.3 ± 0.3%
CC(C)(Cc1ccc(Oc2ncccc2C#N)cc1)NC[C@H](O)COc1ccccc1-c1ccncc1 [Example 375]	35.1 ± 7.3%
CC(C)(Cc1ccc(Oc2ncccc2C(N)=O)cc1)NC[C@H](O)COc1ccccc1-c1ccncc1 [Example 376]	48.2 ± 6.7%
CC(C)(Cc1ccc(Oc2ccc(S(C)(=O)=O)cc2)cc1)NC[C@H](O)COc1ccccc1-c1ccncc1.Cl.Cl [Example 377]	33.0 ± 4.2%
CC(C)(Cc1ccc(Oc2ccc(C#N)cn2)cc1)NC[C@H](O)COc1ccccc1-c1ccsc1 [Example 378]	60.2 ± 3.2%
CC(C)(Cc1ccc(Oc2ccc(C(N)=O)cn2)cc1)NC[C@H](O)COc1ccccc1-c1ccsc1 [Example 379]	37.7 ± 1.6%
CC(C)(Cc1ccc(Oc2ncccc2C#N)cc1)NC[C@H](O)COc1ccccc1-c1ccsc1 [Example 380]	57.4 ± 4.1%
CC(C)(Cc1ccc(Oc2ncccc2C(N)=O)cc1)NC[C@H](O)COc1ccccc1-c1ccsc1.O=C(O)C(F)(F)F [Example 381]	58.5 ± 6.9%
CC(C)(Cc1ccc(Oc2ccc(S(C)(=O)=O)cc2)cc1)NC[C@H](O)COc1ccccc1-c1ccsc1.Cl [Example 382]	32.3 ± 1.9%
CC(C)(Cc1ccc(Oc2ccc(S(C)(=O)=O)cc2)cc1)NC[C@H](O)COc1ccccc1-c1cccs1.Cl [Example 383]	52.1 ± 5.4%
CC(C)(Cc1ccc(Oc2ccc(C#N)cn2)cc1)NC[C@H](O)COc1ccccc1-c1cc2ccccc2s1 [Example 384]	45.4 ± 5.6%
CC(C)(Cc1ccc(Oc2ccc(C(N)=O)cn2)cc1)NC[C@H](O)COc1ccccc1-c1cc2ccccc2s1 [Example 385]	43.1 ± 4.3%
CC(C)(Cc1ccc(Oc2ncccc2C#N)cc1)NC[C@H](O)COc1ccccc1-c1cc2ccccc2s1 [Example 386]	46.9 ± 6.7%

Compound	Emax (%) ± SEM
CC(C)(Cc1ccc(Oc2ncccc2C(N)=O)cc1)NC[C@H](O)COc1ccccc1-c1cc2ccccc2s1.O=C(O)C(F)(F)F [Example 387]	78.7 ± 14.9%
CC(C)(Cc1ccc(Oc2ccc(C#N)cn2)cc1)NC[C@H](O)COc1ccccc1-c1cccnc1 [Example 388]	<10%
CC(C)(Cc1ccc(Oc2ccc(C(N)=O)cn2)cc1)NC[C@H](O)COc1ccccc1-c1cccnc1 [Example 389]	20.3 ± 2.0%
CC(C)(Cc1ccc(Oc2ncccc2C#N)cc1)NC[C@H](O)COc1ccccc1-c1cccnc1 [Example 390]	14.4 ± 1.7%
CC(C)(Cc1ccc(Oc2ncccc2C(N)=O)cc1)NC[C@H](O)COc1ccccc1-c1cccnc1 [Example 391]	22.5 ± 1.5%
CC(C)(Cc1ccc(Oc2ccc(S(C)(=O)=O)cc2)cc1)NC[C@H](O)COc1ccccc1-c1cccnc1.Cl.Cl [Example 392]	17.6 ± 0.4%
CC(C)(Cc1ccc(Oc2ccc(S(C)(=O)=O)cc2)cc1)NC[C@H](O)COc1ccccc1-c1ccc(Cl)s1.Cl [Example 393]	50.0 ± 3.6%
CC(=O)c1ccc(-c2ccccc2OC[C@@H](O)CNC(C)(C)Cc2ccc(Oc3ccc(S(C)(=O)=O)cc3)cc2)s1.Cl [Example 394]	76.9 ± 5.0%
CC(C)(Cc1ccc(Oc2ccc(S(C)(=O)=O)cc2)cc1)NC[C@H](O)COc1ccccc1-c1ccco1.Cl [Example 395]	46.6 ± 5.9%
Cc1ccc(-c2ccccc2OC[C@@H](O)CNC(C)(C)Cc2ccc(Oc3ccc(S(C)(=O)=O)cc3)cc2)s1.Cl [Example 396]	50.5 ± 1.9%
Cc1ccc(-c2ccccc2OC[C@@H](O)CNC(C)(C)Cc2ccc(Oc3ccc(C#N)cn3)cc2)s1.Cl [Example 405]	64.4 ± 7.1%
CC(C)(Cc1ccc(Oc2ccc(C#N)cn2)cc1)NC[C@H](O)COc1ccccc1-c1ccc(Cl)s1.O=C(O)C(F)(F)F [Example 406]	55.8 ± 7.1%
CC(=O)c1ccc(-c2ccccc2OC[C@@H](O)CNC(C)(C)Cc2ccc(Oc3ccc(C#N)cn3)cc2)s1.Cl [Example 407]	79.7 ± 7.6%
CC(C)(Cc1ccc(Oc2ccc(C#N)cn2)cc1)NC[C@H](O)COc1ccccc1-c1ccco1.Cl [Example 408]	74.0 ± 6.5%
Cc1ccc(-c2ccccc2OC[C@@H](O)CNC(C)(C)Cc2ccc(Oc3ccc(C(N)=O)cn3)cc2)s1.Cl [Example 409]	71.3 ± 3.9%
CC(C)(Cc1ccc(Oc2ccc(C(N)=O)cn2)cc1)NC[C@H](O)COc1ccccc1-c1ccc(Cl)s1.Cl [Example 410]	76.0 ± 5.0%

Same assay, conditions: Emax ± SEM; average of at least 3 runs except as otherwise indicated; tested as the isolated form listed

Compound	Emax (%) ± SEM
CC(C)(Cc1ccc(Oc2ncccc2C(N)=O)cc1)NC[C@H](O)COc1ccccc1-c1ccoc1.Cl [Example 303]	67.9 ± 6.1%
CC(C)(Cc1ccc(Oc2ccc(S(C)(=O)=O)cc2)cc1)NC[C@H](O)COc1ccccc1-c1ccoc1.Cl [Example 304]	44.8 ± 4.9%
CC(C)(Cc1ccc(Oc2ccc(C#N)cn2)cc1)NC[C@H](O)COc1ccccc1-c1ccoc1.Cl [Example 305]	68.8 ± 6.5%
CC(C)(Cc1ccc(Oc2ncccc2C#N)cc1)NC[C@H](O)COc1ccccc1-c1ccoc1.Cl [Example 306]	82.4 ± 4.0%
CC(C)(Cc1ccc(Oc2cccnc2C#N)cc1)NC[C@H](O)COc1ccccc1-c1ccoc1.Cl [Example 307]	74.4 ± 1.8%
CC(C)(Cc1ccc(Oc2ncccc2C(N)=O)cc1)NC[C@H](O)COc1ccccc1-c1ncco1.Cl [Example 308]	71.2 ± 5.8%
CC(C)(Cc1ccc(Oc2ccc(C(N)=O)o2)cc1)NC[C@H](O)COc1ccccc1-c1nccs1.O=C(O)C(F)(F)F [Example 327]	56.7 ± 2.1%
CC(C)(Cc1ccc(Oc2ccc(C#N)s2)cc1)NC[C@H](O)COc1ccccc1-c1nccs1.O=C(O)C(F)(F)F [Example 328]	57.4 ± 6.5%
CC(C)(Cc1ccc(Oc2ccc(C(N)=O)s2)cc1)NC[C@H](O)COc1ccccc1-c1nccs1.O=C(O)C(F)(F)F [Example 329]	60.2 ± 3.0%
CC(C)(Cc1ccc(Oc2ccc(C#N)o2)cc1)NC[C@H](O)COc1ccccc1-c1nccs1.O=C(O)C(F)(F)F [Example 330]	55.9 ± 2.8%
CC(C)(Cc1ccc(Oc2ccc(C#N)nc2)cc1)NC[C@H](O)COc1ccccc1-c1ncco1.O=C(O)C(F)(F)F [Example 364]	69.2 ± 2.5%
CC(C)(Cc1ccc(Oc2ccccc2C(N)=O)cc1)NC[C@H](O)COc1ccccc1-c1ncco1.O=C(O)C(F)(F)F [Example 365]	80.2 ± 5.6%

Reference: patent US6730792B2, “β3 adrenergic agonists” (Eli Lilly and Company, priority 2000, dated 2004)
